# Measured values taken from patent US11426406B2, “Compositions and methods for treating lysosomal storage disorders” (GEORGETOWN UNIVERSITY, priority 2017, dated 2022).
# Key:
# Assay type in all cases: in vivo
# [1] = test system: male Sgsh transgenic mice (MPS); assay: Open-field anxiety test in MPS mice (Sanfilippo A model); conditions: daily I.P. 21 days, nilotinib 10 mg/kg, bosutinib 5 mg/kg, 5 minute trial, FIG. 2C
# Method: Open-field Anxiety: Mice were placed in the open field arena for 5 minutes. Animals were tracked by photocell beams along the arena floor. Data were collected and analyzed for the number of entries into the center zone of the arena, the total distance (cm) traveled within the center zone, the amount of time (sec) spent in the center zone, the total distance traveled (cm) in the peripheral wall zone of the arena, the amount of time spent (sec) in the wall zone, the total distance traveled (cm) during the 5 minute trial, the total time spent moving ‘total ambulatory time’ (sec) during the 5 minute trial, and the average velocity (cm/sec) during the 5 minute trial.
# [2] = test system: male Sgsh transgenic mice (MPS); assay: Open-field locomotion test in MPS mice (Sanfilippo A model); conditions: daily I.P. 21 days, nilotinib 10 mg/kg, bosutinib 5 mg/kg, FIG. 2C
# Method: (§1) Twelve 8-9 month old, male Sgsh transgenic mice (MPS) were used for all experiments and were compared to fourteen non-transgenic age-matched, littermates (non-TG). […] Treatment lasted for 21 days. At the end of the treatment period the mice underwent behavioral testing again and Western blot analysis was performed.
# Open-field Locomotion: Mice were placed in the open field arena for 60 minutes. Animals were tracked by photocell beams along the arena floor. Data were collected and analyzed for total locomotion via total cm travelled. Other data collected were the total time spent moving ‘total ambulatory time’ (sec) during the 60 minute trial and the average velocity (cm/sec) during the 60 minute trial.
# (§2) Post-treatment rotarod MPS versus non-TG littermate mice: After the behavioral tests were conducted the symptomatic MPS mice were divided into three groups (n=4). […] There were three control groups made of age matched non-TG littermate controls (n=4, 5) which were treated in the same way. Behavioral tests were repeated and data collected is referred to as “post-treatment.” Since there was no significant difference between the control non-TG treatment groups, they were combined into one non-TG control group.
# [3] = test system: male Sgsh transgenic mice (MPS); assay: Post-treatment rotarod test in MPS mice (Sanfilippo A model); conditions: daily I.P. 21 days, nilotinib 10 mg/kg, bosutinib 5 mg/kg, vs DMSO and non-TG controls, FIG. 3
# Method: as §1
# Rotarod: Mice were placed on the rotarod apparatus which sped up to 50 rpm, over the course of 5 minutes for 3-5 trials, with a minimum of 30 minutes rest between trials. Data collected were the time the animal remained ambulatory on the rotating rod, in seconds, labelled “latency to fall.” Data is also presented as “percentage difference” where all groups are normalized to the non-transgenic, untreated group, assuming non-transgenic, untreated animals are preforming at 100%.
# as §2
smiles,measurement,setting,value
Cc1cn(-c2cc(NC(=O)c3ccc(C)c(Nc4nccc(-c5cccnc5)n4)c3)cc(C(F)(F)F)c2)cn1 [nilotinib],"anxiety (entries into center zone), open field",[1],"reduced anxiety (more entries into center zone, p<0.05)"
same,"overall locomotion activity, open field",[2],increased the overall locomotion (p<0.05) activity
same,"rotarod performance (latency to fall), post-treatment",[3],"perform better than the MPS mice treated with DMSO or bosutinib, and look more like the non-TG controls"
